According to publication PMC7796031, “Studies of Coumarin Derivatives for Constitutive Androstane Receptor (CAR) Activation” (Molecules, 2020):
Like-named read-outs stand apart in the source and are kept apart here.

Assays:
[1] = biological target: T1, Constitutive androstane receptor (CAR) (Homo sapiens, UniProt Q14994); assay: In vitro CAR activation screening assay (UGT1A1 promoter gtPBREM-pGL4 luciferase reporter in Hep3B-gtPBREM cells); format: cell-based; conditions: for activation at 10 µM: (luminescence of compound − luminescence of scoparone)/luminescence of scoparone × 100%, read-out: CAR Activation Fold
T1 construct: The pGL4-gtPBREM plasmid was transfected into Hep3B cells; endogenous in cells
T1 sequence (Q14994 1-352): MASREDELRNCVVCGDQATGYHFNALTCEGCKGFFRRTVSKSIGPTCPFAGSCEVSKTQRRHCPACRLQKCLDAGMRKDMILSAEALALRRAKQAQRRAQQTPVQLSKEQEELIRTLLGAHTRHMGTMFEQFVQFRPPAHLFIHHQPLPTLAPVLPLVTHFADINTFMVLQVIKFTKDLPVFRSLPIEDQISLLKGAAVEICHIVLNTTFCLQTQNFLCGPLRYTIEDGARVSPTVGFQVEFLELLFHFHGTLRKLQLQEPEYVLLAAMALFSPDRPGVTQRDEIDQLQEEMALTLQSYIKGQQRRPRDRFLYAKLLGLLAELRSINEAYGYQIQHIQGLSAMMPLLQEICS
Description: Until now, there is no commercially available high throughput screening method for CAR activation. Traditionally, CAR activation can be detected in western blots by its downstream signals such as UGT1A1, MRP2 or CYP2B6. […] However, this method was slow and pricy. In order to rapidly screen all the compounds for CAR activation at less cost, an in vitro CAR activation screening assay was developed: DNA was extracted from Hep3B cells and UGT1A1 promoter was obtained using PCR amplification. Ligation between UGT1A1 promoter and pGL4 vector was performed and the plasmid was amplified via E. coli replication. The desired plasmid was extracted from E. coli and transfected into Hep3B. The desired colony bearing UGT1A1 promoter-pGL4 plasmid was selected by neomycin. CAR activation was measured by adding tested compounds to Hep3B for several hours and luminescence was measured. Higher activation will get higher luminescence readout. This assay system was validated with two different CAR agonists: CITCO (direct agonist) and scoparone (an indirect agonist). […] Different concentration of scoparone at 1, 5, 10 and 20 μM had been tested either for luciferase assay or downstream UGT1A1 and MRP2 expression (data not shown) and 10 μM was selected to be the best condition for the following work.
After successfully establishing the in vitro assay, all of the coumarin compounds were subjected to the screening (at 10 μM) and their SAR was discussed. Although the reporter system can successfully identify CAR-activating compounds under 8 h and display better efficiency and sensitivity compared with western blots, it only presented a medium luciferase response. According to previous studies, CITCO was reported to only moderately enhance human CAR (less than 2-fold), compared with the enhance provided by TCPOBOP for murine CAR (5- to 10-fold) in luciferase reporter assays. […] Another possibility for the medium response in our reporter system might be the contribution of the whole gtPBREM element which might include response-suppressive elements that was used and the single nucleotide variation of DR3 element which was reported to slightly reduce the original UGT1A1 activity.
The genomic DNA was isolated from Hep3B cells using Wizard® Genomic DNA Purification Kit (Promega, Fitchburg, WI, USA). The promoter region of UGT1A1 gene, gtPBREM element, was amplified by AccuPrime^TM Taq DNA Polymerase High Fidelity Kit (Invitrogen, MA, USA). The sequence of the amplified element was confirmed by DNA sequencing company and cloned into pGL4 luciferase reporter vector. The pGL4-gtPBREM plasmid was transfected into Hep3B cells. The stable pGL4-gtPBREM transfected Hep3B cells, Hep3B-gtPBREM cells, were established after G418 selection. The luciferase activity represented of CAR activation ability was measured using individual established clone. Further, CAR-shRNA was obtained from the Genomic Research Center and transfected into Hep3B-gtPBREM cells. The transient transfected shCAR-Hep3B-gtPBREM cells were used for further luciferase assays.
The Hep3B-gtPBREM cells and shCAR-Hep3B-gtPBREM cells (1.5 × 10^5 cells/well) were seeded into 12-well plates for overnight then pre-determined concentration compounds were added for desired time. After treatment, transfected cells were washed twice in PBS, lysated with 1× passive lysis buffer and luciferase intensity of equal amount of cell lysate was measured by a Synergy HT Multi-Mode Microplate Reader (BioTek, Winooski, VT, USA).

[2] = system: phosphoenopyruvate carboxykinse (PEPCK) mRNA expression; assay: PEPCK mRNA expression induced by dexamethasone and 8-bromo-cAMP in H4IIE cells; format: cell-based, rat; conditions: dexamethasone (500 nM) + 8-bromo-cAMP
Protocol: S21 Effects of scoparone, 50 (PLH), and 6 on phosphoenopyruvate carboxykinse (PEPCK) mRNA expression induced by dexamethasone and 8-bromo-cAMP.
A quantified result of dexamethasone (500 nM) and 8-bromo-cAMP (100µM) induced PEPCK mRNA expression in the presence or absence of scoparone, 50 (PLH) and 6 at 0.78 µM was shown. Insulin (10 nM) was served as an experimental control. Quantified data was presented as mean ± S.E.M. (n = 4). **P < 0.01 and ***P < 0.001 when compared with induction control (None).
PEPCK mRNA could be induced by dexamethasone and 8-bromo-cAMP after 3hr. The presence of insulin […]
Scoparone, at 0.78 µM, can suppress PEPCK
In contrast, both 50 (PLH) and 6 could also suppress PEPCK
Cell culture: The rat H4IIE cells were cultured in Dulbecco’s Modified Eagle’sMedium (DMEM) containing 1 g/L glucose, 5% (v/v) fetal calf serum (FBS) and 1% (v/v) antibiotics (100 U/mL penicillin and 0.1 g/L streptomycin). Cultured cells were maintained at 37 ◦C in an atmosphere of 5% CO2 and 95% air.
The measurement of PEPCK gene expression: H4IIE cells were seeded into 6 cm dish and allowed for the attachment. After serum starvation overnight, cells were treated with various conditions described in the figure legend. After treatment, total RNA of each treatment was extracted using TRI-reagent according to the manufacturer’s instructions. The pelleted RNA was dissolved in distilled water, quantified with NanoDrop™ 1000 Spectrophotometer (Thermo Fisher Scientific, USA) and stored at −70 ◦C. Total RNA (1µg) was reverse transcribed to generate templates. 50 ng of cDNA was employed for further PCR. The sequences of […]
primers for β-actin: 5’-[…]- 3’ and 5’-[…]-3’ and […]
(1 picture or pasted object on this page, not shown here)

murine CAR = system: murine CAR; parameters: method as in PMID 10757780, PMID 12611900; conditions: cited from earlier work
CAR protein = assay: Immunofluorescence staining for CAR translocation in Hep3B cells; format: cell-based, human; conditions: pre-treated with 10 nM okadaic acid, then 50 (10 μM) 2 h
Protocol: Figure 3 Image of immunofluorescence staining for CAR translocation in Hep3B cells after 6,7-diprenoxycoumarin (50) treatment (A) and scoparone treatment (C). Hep3B cells were treated with 50 (10 μM) for 2 h. The negative control group was pre-treated with 10 nM okadaic acid (OA). The blue and green fluorescence stands for signals of nuclei and CAR protein, respectively. The protein expression of nuclear CAR after 6,7-diprenoxycoumarin (50) treatment for 2 h (B).
Hep3B cells (4 × 10^5) were grown on coverslips for overnight then washed twice with 1× PBS and fixed with 4% paraformaldehyde in 1× PBS for 30 min at room temperature. Cells were then permeabilized with 1× PBS containing 0.1% (v/v) Triton X-100 for 10–15 min and blocked in 1× PBS containing 5% BSA for 1 h at room temperature. CAR antibody (1:200 dilutions) was added and reacted at room temperature for 2 h in 1× PBS containing 5% BSA. FITC-conjugated goat anti-rabbit IgG antibody was added for another 1 h at room temperature. Coverslips were mounted and images were acquired under a fluorescence microscope.

[3] = MTT cell cytotoxicity assay of coumarin derivatives; format: cell-based; conditions: human, Hep 3B cells, 72 h treatment
Protocol: The colorimetric assay for cellular growth and survivals described by Hansen et al. with modifications. The MTT (3-(4,5-cimethylthiazol-2yl)-2,5-diphenyltetrazolium bromide, Sigma-Aldrich Inc., Germany) assay was utilized to determine the IC50 value of each compound. Cells (5000 cells/well) were seeded into 96-well plates for 24 h and subsequently the cells were treated with vehicle or tested compounds at pre-determined concentration. After 72 h treatment, MTT solution was added to the final concentration of 0.5 mg/mL and continue cultured for 2 h at 37 °C. Afterward, the cells were lysed with lysis buffer (40% DMF and 20% SDS in H2O) overnight at 37 °C to lysate the cells. The absorbance at 570 nm was then detected by a microplate reader and the IC50 value was calculated.

MRP2 = assay: Protein expression of MRP2 (western blot); format: cell-based, human; conditions: Figure 2; after scoparone or CITCO treatment
Protocol: Figure 7 The protein expressions of MRP2 after 6,7-diprenoxycoumarin (50) treatment. Hep3B cell (1 × 10^6) were treated with 50 (5, 10, 20 and 40 μM) for 24 h. Treated cell lysates were prepared as described in the Methods section and the expression of MRP2 was analyzed by western blot.
(§1) 1 × 10^6 cells were seeded in a 10 cm plate, incubated at 37 °C for overnight and treated with various concentrations of compounds for the indicated times. After incubation, the culture medium was removed and washed twice with 2 mL ice-cold 1× PBS. Three hundred μL of protein lysis buffer (150 mM NaCl, 50 mM Tris-HCl (pH 7.4), 1% SDS, 1% Triton X-100, 1 mM PMSF) was added into each plate, scraped with a rubber policeman, collected into a premarked microtube and the incubated in ice for 1 h, sonicated by Ultrasonic Cell Disruptor for three time at 5 s each. The cell lysated was cleared by centrifugation at 12,000× g for 15 min at 4 °C. Supernatants were transferred into a fresh marked microtube and stored at −20 °C for future use.
(§2) Protein concentration of each sample was determined using a BCA Protein Assay Kit (Pirece®, Thermo Scientific). Different percentages of SDS-PAGE gels were prepared according to the molecular size of proteins of interest. After complete polymerization of stacking gels, each sample with equal amount of total protein was separated in polyacrylamide gels (stacking gel: 50 v, 60 min; separating gel: 100 v, 60 min). After separating, wet-transfer method was utilized to transfer proteins onto the PVDF membrane. The gels were assembled in the transfer sandwich and put in a transfer tank filled with transfer buffer (25 mM glycine, 0.15% ethanolamine, 20% methanol). The electro-transfer was performed at the voltage of 100 volt for 80 min at 4 °C. After transfer, PVDF-membrane was blocked with 5% BSA in 1× TBS-Tween at room temperature for 1 h. Membrane was washed with 10 mL 1× TBS-Tween three times and incubated with primary antibodies overnight at 4 °C with gentle agitation. […] The emitted fluorescence from the membrane was caught on a LAS-4000 biomolecule imager (FUJI.).

human CAR = system: human CAR; parameters: method as in PMID 10757780, PMID 12611900; conditions: cited from earlier work
UGT1A1 = assay: Protein expression of UGT1A1 (western blot); format: cell-based, human; conditions: Figure 2; after scoparone or CITCO treatment
Protocol: as §1
as §2, with “agitation. After primary antibody was removed, the membrane was washed three times with 10 mL 1× TBS-Tween for 10 min at room temperature with constant shaking.” for “agitation.”

## CC(C)=CCOc1cccc2oc(=O)ccc12 [Compound 6]
[1]; Table 1
  activation at 10 µM: -5%
[2]; test compounds as printed
  suppression of PEPCK mRNA induction: less potent

## Clc1cnc(Oc2ccc(Oc3ncc(Cl)cc3Cl)cc2)c(Cl)c1 [TCPOBOP]
Murine CAR
  enhancement of murine CAR in luciferase reporter assays: 5- to 10 fold

## C=C1[C@@H](O)[C@@H]2O[C@]3(CC[C@H](/C=C/[C@@H](C)[C@@H]4CC(C)=C[C@@]5(O[C@H](C[C@@](C)(O)C(=O)O)CC[C@H]5O)O4)O3)CC[C@H]2O[C@@H]1[C@@H](O)C[C@H](C)[C@H]1O[C@@]2(CCCCO2)CC[C@H]1C [okadaic acid, reference compound]
CAR protein
  CAR translocation activity of 50 after pre-treatment: inhibited

## CCCCCOc1cc2ccc(=O)oc2cc1OCCCCC [Compound 47, 6,7-Dipentoxycoumarin]
other
  melting point: 57 to 59 °C
[3]
  IC50 at 72 h: 31 µM
[1]; Table 2
  activation at 10 µM: -10%

## Clc1ccc(-c2nc3sccn3c2/C=N/OCc2ccc(Cl)c(Cl)c2)cc1 [CITCO, 6-(4-Chlorophenyl) imidazo [2,1-b] [1, 3] thiazole-5-carbaldehyde O-(3,4-dichlorobenzyl) oxime, reference compound]
MRP2
  protein expression of MRP2 (CAR downstream gene): upregulated
[1]; assay validation, direct agonist
  elevation of luciferase activity: about 50%
Human CAR
  enhancement of human CAR in luciferase reporter assays: less than 2 fold
UGT1A1
  protein expression of UGT1A (CAR downstream gene): upregulated

## insulin: Insulin (10 nM) served as an experimental control in the PEPCK assay
[2]; 10 nM, experimental control
  suppression of PEPCK mRNA induction: suppress such induction
